Data published in patent US7691874B2, “Neuroprotective properties of dextrorotatory morphinans” (priority 2004, dated 2010).
Marks after values point to notes of the source that are not given here.

Tests used:
[1] = system: MA-treated mice; experiment: Striatal dopamine and metabolites in MA-treated mice; type: in vivo; details: for Concentration DA in the striatum: 3 days after final MA
Source text: Mice were sacrificed at 3 days after final MA injection.

[2] = system: NMDA receptor associated PCP sites; details: cited from earlier work
[3] = system: MA-treated mice; experiment: Methamphetamine (MA)-induced hyperthermia; type: in vivo; details: 24 mg/kg; MA 7.5 mg/kg i.p. x 4 at 2-h intervals
Procedure: Rectal temperature was recorded at 40 min after each MA treatment. […] Mice were sacrificed at 3 days after final MA injection.
FIGS. 10A-10B show effect of morphinans on the methamphetamine (MA)-induced hyperthermia. Mice received i.p. injections of MA (four injections of 7.5 mg/kg each) at 2-h intervals under the ambient temperature of 22.0±0.5° C. Temperatures were recorded at 40 min after each MA treatment (Arrow=MA injection).

[4] = system: MA-treated mice; experiment: MA-induced FRA-IR in the striatum; details: morphinan 20 mg/kg i.p.; MA 1 mg/kg i.p./day x 7
Procedure: Therefore, brains were removed and used for immunocytochemical analysis at 18 h after the final cocaine/MA treatment. The coronal sections containing striatum were processed for FRA immunocytochemistry. […] The FRA antibody was used at 1:2,000 as the optimal dilution. The FRA-IR in the striatum was calculated using image analysis systems with a polaroid digital microscopic camera (Optimas version 6.2).

[5] = system: C57 BL/6 mice; experiment: Conditioned place preference (psychological dependence) following repeated administration of morphinans or PCP; type: in vivo; details: 20 or 40 mg/kg i.p. (PCP 2.5 or 5 mg/kg); vs saline
Procedure: On day 14, the guillotine doors were raised. […] Data were analyzed between 0900 and 1700 hr.

[6] = molecular target: σ1 receptors (Homo sapiens, UniProt Q99720); details: cited from earlier work
[7] = system: MA-treated mice; experiment: MA-induced hyperlocomotion; type: in vivo; details: morphinan 20 mg/kg i.p. 30 min before MA 1 mg/kg i.p./day x 7
Procedure: FIGS. 39A-39D show effect of morphinans on the MA-induced hyperactivity in the mice. Each morphinan (20 mg/kg, i.p.) was administered 30 minutes prior to MA (1 mg/kg, i.p.). All treatments were performed for 7 days.

[8] = system: cocaine-treated mice; experiment: Cocaine-induced Fos-related antigen-immunoreactivity (FRA-IR) in the striatum; details: cocaine 5 mg/kg; morphinan 20 mg/kg i.p.
[9] = system: MPTP-treated mice; experiment: Nigral tyrosine hydroxylase-like immunoreactivity in MPTP-treated mice; details: 24 mg/kg i.p.
Procedure: (§2) Each morphinan was administered 30 min prior to every injection of MPTP for last three days (from day 4th to day 7th). Animals were sacrificed 24 h after the last MPTP treatment.

[10] = system: C57 BL/6 mice; experiment: Locomotor activity and locomotor pattern following repeated administration of morphinans or PCP; type: in vivo
[11] = system: MA-treated mice; experiment: Hypokinesia induced by MA; type: in vivo; details: 12 and 24 mg/kg; 3 days after final MA
[12] = system: MPTP-treated mice; experiment: Striatal dopamine and metabolites (HPLC-EC) in MPTP-treated mice; details: for Concentration DA in the striatum: mean ± S.E.M., 8 animals
Procedure: as §2
Brains were rapidly removed and cut into 1 mm coronal sections on ice. The striatum was punched using a fine pasteur pipette (3, 21, 22), and stored at −70° C. DA and its metabolites, 3,4-dihydroxyphenylacetic acid (DOPAC) and homovanilic acid (HVA) were measured by HPLC-eletrochemical detection (3, 21, 22). Briefly, the striatum was homogenized in 0.2 M perchloric acid containing 3,4-dihydroxybenzylamine as an internal standard (10 mg wet weight of tissue per ml). The homogenate was centrifuged and a 20-μl aliquot of the supernatant was injected into the HPLC equipped with an ODS-C18 column. The mobile phase was comprised of 26 ml of acetonitrile, 21 ml of tetrahydrofuran and 960 ml of 0.15 M monochloroacetic acid (pH 3.0) containing 50 mg/l of EDTA and 200 mg/l of sodium octyl sulfate. The amount of DA, DOPAC and HVA were determined by comparison of peak height ratio of tissue sample with standards, and were expressed in nanograms per 100 mg of wet weight of tissue.
Each morphinan was administered 30 min before every injection of MPTP for last three days. Animals were sacrificed at 24 h after the last MPTP injection.

[13] = system: MPTP-treated mice; experiment: Hypokinesia (reduction in locomotor activity) induced by MPTP; type: in vivo; details: 12 or 24 mg/kg i.p. 30 min before MPTP (20 mg/kg/day x 7), last three days
[14] = system: LPS-treated mice; experiment: Striatal dopamine and metabolites in LPS-treated mice; type: in vivo; details: for Concentration DA in the striatum: 3 weeks after LPS
Source text: (§1) Control animals received striatal injection with PBS.
Mice were sacrificed at 3 weeks after LPS treatment.

[15] = system: kainate or maximal electric shock; details: kainate (24) or maximal electric shock (27); cited from earlier work
[16] = system: MA-treated mice; experiment: Nigral TH-IR in MA-treated mice; details: 24 mg/kg i.p.
[17] = system: LPS-treated mice; experiment: Hypokinesia induced by intrastriatal LPS; details: 12 or 24 mg/kg, twice before bilateral intrastriatal LPS
Procedure: Male mice were anesthetized with chloral hydrate (200 mg/kg, i.p.) and positioned in a small-animal stereotaxic apparatus. […] LPS (2 μg in a volume of 2 μl of PBS) was injected into both sides of the striatum over a period of 2 min, and the injection needle was kept in place for 2 min after the injection. Control animals received striatal injection with PBS.
Ten min after the last treatment with each drug, locomotor activity was measured for 30 min. After measuring the locomotor activity (i.e. 40 min after the last drug injection), the ‘absolute turn angular’ was analyzed in a 3-min monitoring period using an automated video-tracking system (Noldus Information Technology, Wagenin, The Netherlands) to examine locomotor patterns. […] Eight test boxes (40×40×30 cm high) were operated simultaneously by an IBM computer. Animals were studied individually during locomotion in each test box, where they were adapted for 10 min before starting the experiment. […] The distance traveled in cm by the animals in horizontal locomotor activity was analyzed (13, 25, 27). Data were collected and analyzed between 0900 and 1700 hr.

[18] = system: LPS-treated mice; experiment: Nigral TH-IR in LPS-treated mice; type: in vivo; details: 24 mg/kg i.p.
Source text: FIGS. 8A-8B. […] Magnification=40×.
as §1

[19] = system: MA-treated mice; experiment: MA-induced behavioural sensitization; details: morphinan 20 mg/kg i.p., last 3 days of wash-out (Ex. 3.12)
Procedure: Morphinans (20 mg/kg, i.p.) were administered last 3 days of wash-out period.

[20] = system: cocaine-treated mice; experiment: Cocaine-induced hyperlocomotion; type: in vivo
Procedure: FIGS. 34A-34B show effect of morphinans on the cocaine-induced hyperactivity in the mice. Morphinans (15 and 30 mg/kg, i.p.) were administered 30 minutes prior to cocaine (5 and 20 mg/kg, i.p.). Central activity means relatively non-specific locomotor activity in the center of the box. Marginal activity means circling behaviors. All treatments were performed for 7 days.
FIGS. 35A-35D show effect of dimemorfan (DF) on cocaine-induced hyperactivity in the mice. DF (20 mg/kg, i.p.) was administered 30 minutes prior to cocaine (5 and 20 mg/kg, i.p.). All treatments were performed for 7 days.

Sequence of σ1 receptors (Q99720 whole entry): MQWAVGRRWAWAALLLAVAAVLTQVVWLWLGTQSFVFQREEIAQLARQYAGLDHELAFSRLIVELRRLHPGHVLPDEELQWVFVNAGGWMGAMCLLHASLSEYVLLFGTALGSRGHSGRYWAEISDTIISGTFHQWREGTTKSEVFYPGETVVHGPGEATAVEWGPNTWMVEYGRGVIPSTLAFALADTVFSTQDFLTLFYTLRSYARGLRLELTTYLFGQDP

SMILES: CN1CC[C@]23CCCC[C@H]2[C@H]1Cc1ccc(OCC2CC2)cc13 [CM, 3-cyclopropylmethoxy-17-methylmorphinan]
- effect on MA-induced reductions in striatal DA, DOPAC and HVA ([1]; 24 mg/kg pretreatment): significantly protected
- Concentration DOPAC in the striatum ([1]; morphinan 12 (mg/kg) + MA): 82 ± 10 ng/100 mg wet tissue
- Concentration HVA in the striatum ([1]; morphinan 12 (mg/kg) + MA): 83 ± 9 ng/100 mg wet tissue
- Concentration DA in the striatum ([1]; morphinan 12 (mg/kg) + MA, mean ± S.E.M., 8 animals): 668 ± 81 ng/100 mg wet tissue
- Concentration DOPAC in the striatum ([1]; morphinan 24 (mg/kg) + MA): 99 ± 10^b ng/100 mg wet tissue
- Concentration HVA in the striatum ([1]; morphinan 24 (mg/kg) + MA): 94 ± 12^b ng/100 mg wet tissue
- Concentration DA in the striatum ([1]; morphinan 24 (mg/kg) + MA): 777 ± 66^c ng/100 mg wet tissue
- affinity for NMDA receptor associated PCP sites [2]: very low affinities
- effect on MA-induced hyperthermia (rectal temperature) [3]: attenuated by all morphinans used in this study
- effect on MA-induced FRA-IR in the striatum [4]: apparently attenuated
- conditioned place preference (CPP) [5]: almost no CPP effects
- affinity for σ1 receptors [6]: high affinity ligands
- effect on MA-induced hyperlocomotion [7]: consistently effective in attenuating hyperlocomotion induced by MA
- effect on cocaine-induced FRA-IR in the striatum [8]: apparently attenuated
- effect on MPTP-induced decrease in nigral TH-positive cells [9]: significantly attenuated the decrease in TH-positive cells
- locomotor pattern (tracings) ([10]; 40 mg/kg i.p. (PCP 5 mg/kg), FIG. 3): did not produce significant marginal activity
- marginal activity (circling behaviour; absolute turn angular) ([10]; 20 or 40 mg/kg i.p./day x 7 (PCP 2.5 or 5 mg/kg), 3-min period, vs saline): did not significantly affect marginal activity
- locomotor activity (total distance moved) ([10]; 20 or 40 mg/kg i.p./day x 7 days, 30 min after final treatment, vs saline): comparable to that with saline
- effect on MA-induced reduction in locomotor activity [11]: significantly prevented MA-induced reduction in locomotor activity
- effect on MPTP-induced reductions in striatal DA, DOPAC and HVA ([12]; 24 mg/kg pretreatment): significantly protected
- Concentration DOPAC in the striatum ([12]; morphinan 12 (mg/kg) + MPTP): 58 ± 6 ng/100 mg wet tissue
- Concentration HVA in the striatum ([12]; morphinan 12 (mg/kg) + MPTP): 68 ± 9 ng/100 mg wet tissue
- Concentration DA in the striatum ([12]; morphinan 12 (mg/kg) + MPTP): 489 ± 69 ng/100 mg wet tissue
- Concentration DOPAC in the striatum ([12]; morphinan 24 (mg/kg) + MPTP): 78 ± 10^b ng/100 mg wet tissue
- Concentration HVA in the striatum ([12]; morphinan 24 (mg/kg) + MPTP): 89 ± 7^b ng/100 mg wet tissue
- Concentration DA in the striatum ([12]; morphinan 24 (mg/kg) + MPTP): 587 ± 76^b ng/100 mg wet tissue
- effect on MPTP-induced reduction in locomotor activity [13]: significantly prevented MPTP-induced reduction in locomotor activity
- effect on LPS-induced reductions in striatal DA, DOPAC and HVA ([14]; 24 mg/kg pretreatment): significantly protected
- Concentration DOPAC in the striatum ([14]; morphinan 12 (mg/kg) + LPS): 70 ± 7 ng/100 mg wet tissue
- Concentration HVA in the striatum ([14]; morphinan 12 (mg/kg) + LPS): 83 ± 6 ng/100 mg wet tissue
- Concentration DA in the striatum ([14]; morphinan 12 (mg/kg) + LPS, mean ± S.E.M., 8 animals): 482 ± 54 ng/100 mg wet tissue
- Concentration DOPAC in the striatum ([14]; morphinan 24 (mg/kg) + LPS): 86 ± 9^c ng/100 mg wet tissue
- Concentration HVA in the striatum ([14]; morphinan 24 (mg/kg) + LPS): 89 ± 7^c ng/100 mg wet tissue
- Concentration DA in the striatum ([14]; morphinan 24 (mg/kg) + LPS): 684 ± 56^c ng/100 mg wet tissue
- anticonvulsant effect [15]: exhibited anticonvulsant effects
- effect on MA-induced decrease in nigral TH-positive cells [16]: significantly attenuated the decrease in TH-positive cells
- effect on LPS-induced decrease in locomotor activity [17]: significantly prevented LPS-induced decrease in locomotor activity
- effect on LPS-induced reduction in nigral TH-positive cells [18]: significantly attenuated the reduction in TH-positive cells
- effect on MA-induced behavioural sensitization [19]: significantly reduced
- effect on locomotor activity induced by low dose of cocaine ([20]; cocaine 5 mg/kg i.p. x 7 days, morphinan 15 or 30 mg/kg (DF 20 mg/kg) i.p.): consistently attenuated locomotor activity induced by a low dose of cocaine
- effect on hyperactivity induced by high dose of cocaine ([20]; cocaine 20 mg/kg i.p. x 7 days, morphinan 15 or 30 mg/kg i.p. 30 min before): not uniform
